Reference: patent US20230265116A1, “DEGRADATION OF (EGFR) BY CONJUGATION OF EGFR INHIBITORS WITH E3 LIGASE LIGAND AND METHODS OF USE” (BEIGENE, LTD., priority 2020, published 2023)

Target: T1, EGFR (HCC827 cells) (Homo sapiens, UniProt P00533, DEL746-750)
T1 construct: endogenous in cells; host or cells: HCC827
Assay: EGFR degradation HTRF assay, HCC827 cells
Type: cell-based
Conditions: HCC827, 16h treatment; for Dmax: maximum percentage of degradation
Description: BaF3 WT(wild type), BaF3-LTC(L858R/T790M/C797S) and BaF3-DTC(Del19/T790M/C797S) cells are treated with compounds diluted in 0.2% DMSO cell culture medium and incubate for 16h, 37° C., 5% CO2, H1975-#36, H1975-#28, H1975-#23 and HCC827 cells are treated with compounds diluted in 0.2% DMSO cell culture medium on day 2, incubate for 16h, 37° C., 5% CO2.the final concentriation of compounds in all assay is start with 10 uM, 5-fold dilution, total 8 doses were included.
After 16h treatment, add HTRF lysis buffer to each well; seal the plate and incubate 1 hour at room temperature on a plate shaker; Once the cells are lysed, 16 μL of cell lysate are transferred to a PE 384-well HTRF detection plate; 4 μL of pre-mixed HTRF antibodies are added to each well; Cover the plate with a plate sealer, spin 1000 rpm for 1 min, Incubate overnight at room temperature; Read on BMG PheraStar with HTRF protocol (337 nm-665 nm-620 nm).
The inhibition (degradation) percentage of the compound was calculated by the following equation: Inhibition percentage of Compound=100-100×(Signal-low control)/(High control-low control), wherein signal=each test compound group
High control=Cell group with added DMSO and without compound, indicating microplate readings without EGFR degradation;
Dmax is the maximum percentage of inhibition (degradation).
The IC50 (DC50) value of a compound can be obtained by fitting the following equation
Y=Bottom+(TOP−Bottom)/(1+((IC50/X)^hillslope))
Wherein, X and Y are known values, and IC50, Hillslope, Top and Bottom are the parameters obtained by fitting with software. Y is the inhibition percentage (calculated from the equation), X is the concentration of the compound; IC50 is the concentration of the compound when the 50% inhibition is reached. The smaller the IC50 value is, the stronger the inhibitory ability of the compound is. Vice versa, the higher the IC50 value is, the weaker the inhibitory ability of the compound is; Hillslope represents the slope of the fitted curve, generally around 1*; Bottom represents the minimum value of the curve obtained by data fitting, which is generally 0%±20%; Top represents the maximum value of the curve obtained by data fitting, which is generally 100%±20%. The experimental data were fitted by calculating and analyzing with Dotmatics data analysis software.

T1 sequence (P00533 with tags, fused parts or gaps DEL746-750): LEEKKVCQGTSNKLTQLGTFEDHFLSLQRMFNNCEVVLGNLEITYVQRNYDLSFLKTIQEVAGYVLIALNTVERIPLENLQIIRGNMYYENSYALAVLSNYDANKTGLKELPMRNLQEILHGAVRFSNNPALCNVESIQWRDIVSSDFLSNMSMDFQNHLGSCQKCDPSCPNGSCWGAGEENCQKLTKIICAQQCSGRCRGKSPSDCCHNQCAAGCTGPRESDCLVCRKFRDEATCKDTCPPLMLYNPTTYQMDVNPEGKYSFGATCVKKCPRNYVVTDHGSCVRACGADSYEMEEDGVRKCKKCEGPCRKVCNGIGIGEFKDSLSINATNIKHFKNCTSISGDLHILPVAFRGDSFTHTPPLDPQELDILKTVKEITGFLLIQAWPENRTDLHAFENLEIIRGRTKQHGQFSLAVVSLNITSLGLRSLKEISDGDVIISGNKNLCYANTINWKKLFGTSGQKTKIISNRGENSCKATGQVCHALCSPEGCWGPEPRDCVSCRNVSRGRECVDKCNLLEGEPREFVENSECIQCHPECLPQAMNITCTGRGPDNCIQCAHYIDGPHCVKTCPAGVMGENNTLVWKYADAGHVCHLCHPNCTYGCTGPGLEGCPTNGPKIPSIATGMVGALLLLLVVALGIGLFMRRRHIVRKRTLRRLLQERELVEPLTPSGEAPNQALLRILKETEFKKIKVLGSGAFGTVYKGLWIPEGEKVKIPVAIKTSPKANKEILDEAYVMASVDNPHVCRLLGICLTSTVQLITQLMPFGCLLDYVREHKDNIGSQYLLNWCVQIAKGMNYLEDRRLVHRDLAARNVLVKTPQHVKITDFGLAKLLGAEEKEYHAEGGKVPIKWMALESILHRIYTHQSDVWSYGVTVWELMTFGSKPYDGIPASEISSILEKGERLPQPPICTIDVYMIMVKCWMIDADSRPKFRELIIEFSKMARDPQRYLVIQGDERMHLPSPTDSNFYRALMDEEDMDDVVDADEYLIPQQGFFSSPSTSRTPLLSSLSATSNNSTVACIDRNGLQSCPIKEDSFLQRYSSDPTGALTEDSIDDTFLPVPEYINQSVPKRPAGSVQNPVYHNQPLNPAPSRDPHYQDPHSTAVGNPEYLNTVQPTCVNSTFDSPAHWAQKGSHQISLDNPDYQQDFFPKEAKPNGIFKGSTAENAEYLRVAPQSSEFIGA

DC50 [µM] | Dmax [%] | SMILES
0.0154 | 77.5 | CCc1cc(Nc2ncc(Br)c(Nc3ccc4nccnc4c3P(C)(C)=O)n2)c(OC)cc1N1CCC(N2CCN(CCCOc3ccc(C4CCC(=O)NC4=O)cc3)CC2)CC1 (stereo not shown) [Example 18, 3-(4-(3-(4-(1-(4-((5-bromo-4-((5-(dimethylphosphoryl)quinoxalin-6-yl)amino)pyrimidin-2-yl)amino)-2-ethyl-5-methoxyphenyl)piperidin-4-yl)piperazin-1-yl)propoxy)phenyl)piperidine-2,6-dione]
0.00624 | 83.7 | CCc1cc(Nc2ncc(Br)c(Nc3ccc4nccnc4c3P(C)(C)=O)n2)c(OC)cc1N1CCC(N2CCN(C(=O)CCCCN3CCN(c4ccc5c(c4)C(=O)N(C4CCC(=O)NC4=O)C5=O)CC3)CC2)CC1 (stereo not shown) [Example 62, 5-(4-(5-(4-(1-(4-((5-bromo-4-((5-(dimethylphosphoryl)quinoxalin-6-yl)amino)pyrimidin-2-yl)amino)-2-ethyl-5-methoxyphenyl)piperidin-4-yl)piperazin-1-yl)-5-oxopentyl)piperazin-1-yl)-2-(2,6-dioxopiperidin-3-yl)isoindoline-1,3-dione]
0.0131 | 64.3 | CCc1cc(Nc2ncc(Br)c(Nc3ccc4nccnc4c3P(C)(C)=O)n2)c(OC)cc1N1CCC(N2CCN(C(=O)CN3CCN(c4ccc5c(c4)C(=O)N(C4CCC(=O)NC4=O)C5)CC3)CC2)CC1 (stereo not shown) [Example 68, 3-(6-(4-(2-(4-(1-(4-((5-bromo-4-((5-(dimethylphosphoryl)quinoxalin-6-yl)amino)pyrimidin-2-yl)amino)-2-ethyl-5-methoxyphenyl)piperidin-4-yl)piperazin-1-yl)-2-oxoethyl)piperazin-1-yl)-1-oxoisoindolin-2-yl)piperidine-2,6-dione]
0.0572 | 85.2 | COc1cc(N2CCC(N(C)CCc3ccc(C4CCC(=O)NC4=O)cn3)CC2)c(C)cc1Nc1ncc(Br)c(Nc2ccc3nccnc3c2P(C)(C)=O)n1 (stereo not shown) [Example 74, 3-(6-(2-((1-(4-((5-bromo-4-((5-(dimethylphosphoryl)quinoxalin-6-yl)amino)pyrimidin-2-yl)amino)-5-methoxy-2-methylphenyl)piperidin-4-yl)(methyl)amino)ethyl)pyridin-3-yl)piperidine-2,6-dione]
0.0506 | 72.1 | COc1cc(N2CCC(N(C)CCc3ccc(C4CCC(=O)NC4=O)cc3)CC2)c(C)cc1Nc1ncc(Br)c(Nc2ccc3nccnc3c2P(C)(C)=O)n1 (stereo not shown) [Example 75, 3-(4-(2-((1-(4-((5-bromo-4-((5-(dimethylphosphoryl)quinoxalin-6-yl)amino)pyrimidin-2-yl)amino)-5-methoxy-2-methylphenyl)piperidin-4-yl)(methyl)amino)ethyl)phenyl)piperidine-2,6-dione]
0.0305 | 77.1 | COc1cc(N2CCC(N(C)CCOc3ccc(C4CCC(=O)NC4=O)cc3)CC2)c(C)cc1Nc1ncc(Br)c(Nc2ccc3nccnc3c2P(C)(C)=O)n1 (stereo not shown) [Example 76, 3-(4-(2-((1-(4-((5-bromo-4-((5-(dimethylphosphoryl)quinoxalin-6-yl)amino)pyrimidin-2-yl)amino)-5-methoxy-2-methylphenyl)piperidin-4-yl)(methyl)amino)ethoxy)phenyl)piperidine-2,6-dione]
0.0152 | 70.1 | COc1cc(N2CCC(N(C)CCC3CCN(c4ccc(C5CCC(=O)NC5=O)cc4)CC3)CC2)c(C)cc1Nc1ncc(Br)c(Nc2ccc3nccnc3c2P(C)(C)=O)n1 (stereo not shown) [Example 78, 3-(4-(4-(2-((1-(4-((5-bromo-4-((5-(dimethylphosphoryl)quinoxalin-6-yl)amino)pyrimidin-2-yl)amino)-5-methoxy-2-methylphenyl)piperidin-4-yl)(methyl)amino)ethyl)piperidin-1-yl)phenyl)piperidine-2,6-dione]
0.0359 | 74.4 | COc1cc(N2CCC(N(C)CCC3CCN(c4ccc(N5CCC(=O)NC5=O)cc4)CC3)CC2)c(C)cc1Nc1ncc(Br)c(Nc2ccc3nccnc3c2P(C)(C)=O)n1 [Example 80, 1-(4-(4-(2-((1-(4-((5-bromo-4-((5-(dimethylphosphoryl)quinoxalin-6-yl)amino)pyrimidin-2-yl)amino)-5-methoxy-2-methylphenyl)piperidin-4-yl)(methyl)amino)ethyl)piperidin-1-yl)phenyl)dihydropyrimidine-2,4(1H,3H)-dione]
0.0667 | 81 | COc1cc(N2CCN(CCc3ccc(C4CCC(=O)NC4=O)cc3)CC2)c(C)cc1Nc1ncc(Br)c(Nc2ccc3nccnc3c2P(C)(C)=O)n1 (stereo not shown) [Example 86, 3-(4-(2-(4-(4-((5-bromo-4-((5-(dimethylphosphoryl)quinoxalin-6-yl)amino)pyrimidin-2-yl)amino)-5-methoxy-2-methylphenyl)piperazin-1-yl)ethyl)phenyl)piperidine-2,6-dione]
0.0575 | 86.2 | COc1cc(N2CCN(CCc3ccc(C4CCC(=O)NC4=O)cn3)CC2)c(C)cc1Nc1ncc(Br)c(Nc2ccc3nccnc3c2P(C)(C)=O)n1 (stereo not shown) [Example 87, 3-(6-(2-(4-(4-((5-bromo-4-((5-(dimethylphosphoryl)quinoxalin-6-yl)amino)pyrimidin-2-yl)amino)-5-methoxy-2-methylphenyl)piperazin-1-yl)ethyl)pyridin-3-yl)piperidine-2,6-dione]
0.0904 | 73.5 | COc1cc(N2CCN(CCOc3ccc(C4CCC(=O)NC4=O)cc3)CC2)c(C)cc1Nc1ncc(Br)c(Nc2ccc3nccnc3c2P(C)(C)=O)n1 (stereo not shown) [Example 91, 3-(4-(2-(4-(4-((5-bromo-4-((5-(dimethylphosphoryl)quinoxalin-6-yl)amino)pyrimidin-2-yl)amino)-5-methoxy-2-methylphenyl)piperazin-1-yl)ethoxy)phenyl)piperidine-2,6-dione]
0.306 | 76.8 | COc1cc(N2CCN(CCCOc3ccc(OC4CCC(=O)NC4=O)cc3)CC2)c(C)cc1Nc1ncc(Br)c(Nc2ccc3nccnc3c2P(C)(C)=O)n1 (stereo not shown) [Example 92, 3-(4-(3-(4-(4-((5-bromo-4-((5-(dimethylphosphoryl)quinoxalin-6-yl)amino)pyrimidin-2-yl)amino)-5-methoxy-2-methylphenyl)piperazin-1-yl)propoxy)phenoxy)piperidine-2,6-dione]
0.13 | 72.4 | COc1cc(N2CCN(CCc3ccc(OC4CCC(=O)NC4=O)cc3)CC2)c(C)cc1Nc1ncc(Br)c(Nc2ccc3nccnc3c2P(C)(C)=O)n1 (stereo not shown) [Example 93, 3-(4-(2-(4-(4-((5-bromo-4-((5-(dimethylphosphoryl)quinoxalin-6-yl)amino)pyrimidin-2-yl)amino)-5-methoxy-2-methylphenyl)piperazin-1-yl)ethyl)phenoxy)piperidine-2,6-dione]
0.0322 | 58.5 | COc1cc(N2CCN(CCC3CCN(c4ccc(N5CCC(=O)NC5=O)cc4)CC3)CC2)c(C)cc1Nc1ncc(Br)c(Nc2ccc3nccnc3c2P(C)(C)=O)n1 [Example 94, 1-(4-(4-(2-(4-(4-((5-bromo-4-((5-(dimethylphosphoryl)quinoxalin-6-yl)amino)pyrimidin-2-yl)amino)-5-methoxy-2-methylphenyl)piperazin-1-yl)ethyl)piperidin-1-yl)phenyl)dihydropyrimidine-2,4(1H,3H)-dione]
0.0172 | 79.3 | COc1cc(N2CCC(N3CCN(C(=O)CC4CCN(c5ccc(C6CCC(=O)NC6=O)cc5)CC4)CC3)CC2)ccc1Nc1ncc(Cl)c(Nc2ccccc2P(C)(C)=O)n1 (stereo not shown) [Example 107, 3-(4-(4-(2-(4-(1-(4-((5-chloro-4-((2-(dimethylphosphoryl)phenyl)amino)pyrimidin-2-yl)amino)-3-methoxyphenyl)piperidin-4-yl)piperazin-1-yl)-2-oxoethyl)piperidin-1-yl)phenyl)piperidine-2,6-dione]
0.0166 | 82.2 | COc1cc(N2CCC(N3CCN(CCc4ccc(NC5CCC(=O)NC5=O)cc4)CC3)CC2)ccc1Nc1ncc(Cl)c(Nc2ccccc2P(C)(C)=O)n1 (stereo not shown) [Example 108]
0.189 | 79.6 | COc1cc(N2CCC(N3CCN(CCCOc4ccc(OC5CCC(=O)NC5=O)cc4)CC3)CC2)ccc1Nc1ncc(Cl)c(Nc2ccccc2P(C)(C)=O)n1 (stereo not shown) [Example 109, 3-(4-(3-(4-(1-(4-((5-chloro-4-((2-(dimethylphosphoryl)phenyl)amino)pyrimidin-2-yl)amino)-3-methoxyphenyl)piperidin-4-yl)piperazin-1-yl)propoxy)phenoxy)piperidine-2,6-dione]
